From paper PMC8784342, “Investigation of sugar binding kinetics of the E. coli sugar/H^+ symporter XylE using solid-supported membrane-based electrophysiology” (The Journal of Biological Chemistry, 2021)
Several values for one entry are separate records, joined by “and”; a condition that tells them apart may be missing. Equal entries are not always repeated. Marks after values point to notes of the source that are not given here.

Tests used:
Q175I/L297F XylE = target: T1, Q175I/L297F XylE (Escherichia coli, UniProt P0AGF4, L297F/Q175I); assay: biochemical
T1 construct: made in house; host or cells: E. coli BL21 DE3
T1 sequence (P0AGF4 whole entry Q175I/L297F): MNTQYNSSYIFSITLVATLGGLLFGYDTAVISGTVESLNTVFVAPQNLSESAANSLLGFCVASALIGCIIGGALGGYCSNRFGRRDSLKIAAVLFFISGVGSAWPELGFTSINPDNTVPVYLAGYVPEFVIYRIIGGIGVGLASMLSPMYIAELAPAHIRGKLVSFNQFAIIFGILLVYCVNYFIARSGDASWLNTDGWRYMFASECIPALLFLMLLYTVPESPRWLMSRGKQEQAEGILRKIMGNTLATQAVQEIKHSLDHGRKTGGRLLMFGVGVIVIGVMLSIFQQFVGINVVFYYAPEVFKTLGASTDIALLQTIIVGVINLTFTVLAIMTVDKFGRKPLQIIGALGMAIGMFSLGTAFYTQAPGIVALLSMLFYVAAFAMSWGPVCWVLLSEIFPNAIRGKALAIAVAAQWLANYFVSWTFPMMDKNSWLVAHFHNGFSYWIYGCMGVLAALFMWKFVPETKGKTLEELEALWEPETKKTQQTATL
Protocol: (§1) Reconstitution of purified proteins (2–20 mg/ml) was carried out with E. coli phospholipids (Avanti Polar Lipids, E. coli polar lipid extract). Preformed liposomes (0.2–2 ml, 10 mg/ml) were dissolved in 1% (w/v) n-octyl-β-D-glucoside, and the protein suspension was mixed on ice to a concentration of 0.2 mg protein/mg lipid (LPR 5).
Wt XylE, wt FucP, and the mutant proteins were reconstituted using overnight incubation in 400 mg/ml BioBeads (SM-2 Adsorbent Media, Bio-Rad) at 4 °C. After reconstitution, the samples were diluted to 2.5 mg/ml lipid concentration, frozen in liquid nitrogen, and stored at −80 °C. […] We, therefore, applied the previously established n-octyl-β-D-glucoside dilution method (1:100) ([69]).
(§2) SSM measurements were performed as described ([20], [23]). After thawing the sample and sonication in a water bath, 30 μl of proteoliposomes (2.5 mg/ml lipid at LPR 5) was allowed to adsorb for 1 to 2 h to an octadecanethiol/phosphatidylcholine hybrid bilayer on a gold surface (the sensor).
(§3) For measurements, a single solution exchange configuration ([23]) was employed that consisted in three phases of 0.5 s duration each: Flow of nonactivating solution (NA), activating solution (A), and nonactivating solution (NA). Only the activating solution contained the sugar. When pH dependence is determined, pH of NA and A solutions during one experiment are kept constant. Between experiments using different pH values, the sensor was incubated at the new pH for 3 min to equilibrate the intraliposomal pH.
(§4) Instruments with different time resolution were used as required. […] Currents were recorded throughout the entire time and amplified with a current amplifier set to a gain of […] and a rise time of 10 ms (low time-resolution set up) or 3 ms (high time-resolution set up).
(§5) All NA solutions were buffered in 100 mM KPi at a given pH value. NA solutions used with LacY contained 1 mM DTT in addition. A solutions were made from NA solutions by adding the respective sugar at a given concentration to induce the symport reaction. Sugar concentration jumps initiated sugar-proton symport, and charge transfer was measured by capacitive coupling. Therefore, only transient currents were recorded.
(§6) Each dataset represented with error bars was generated by performing the same experiment on multiple sensors (n ≥ 3). Error bars represent standard deviations of the average value. When peak currents are averaged across sensors, datasets are normalized before averaging. When the protein catalyzes transport and PSS currents are negligible, the peak current of the transient represents a good approximation of the current generated by the steady-state symport activity of the transporter. In most cases, peak currents have been used to derive kinetic and thermodynamic parameters according to the equations given in Figure 2 (KM, Imax ∼ Vmax, Hill coefficient n), Figure 4 (KD and rate constants for sugar binding kon and release koff), and Figure 6 (pKa for proton binding and pKb for proton release). Reconstruction of transporter currents for analysis of biphasic currents has been performed as described previously ([70]). This is required when transport and PSS currents are observed at the same time.

D27N XylE [1] = target: T2, D27N XylE (Escherichia coli, UniProt P0AGF4, D27N); details: cited from earlier work
T2 construct: made in house; host or cells: E. coli BL21 DE3
T2 sequence (P0AGF4 whole entry D27N): as the sequence (P0AGF4 whole entry Q175I/L297F) above, with D27N, I175Q, F297L counted along it

XylE [2] = details: radioactively labeled sugars; read-out: KM, literature; cited from earlier work
wt XylE [3] = target: T3, wt XylE (Escherichia coli, UniProt P0AGF4); design: made in house; host or cells: E. coli BL21 DE3; details: relative to D-xylose in wt XylE (100%); cited from earlier work
T3 sequence (P0AGF4 whole entry): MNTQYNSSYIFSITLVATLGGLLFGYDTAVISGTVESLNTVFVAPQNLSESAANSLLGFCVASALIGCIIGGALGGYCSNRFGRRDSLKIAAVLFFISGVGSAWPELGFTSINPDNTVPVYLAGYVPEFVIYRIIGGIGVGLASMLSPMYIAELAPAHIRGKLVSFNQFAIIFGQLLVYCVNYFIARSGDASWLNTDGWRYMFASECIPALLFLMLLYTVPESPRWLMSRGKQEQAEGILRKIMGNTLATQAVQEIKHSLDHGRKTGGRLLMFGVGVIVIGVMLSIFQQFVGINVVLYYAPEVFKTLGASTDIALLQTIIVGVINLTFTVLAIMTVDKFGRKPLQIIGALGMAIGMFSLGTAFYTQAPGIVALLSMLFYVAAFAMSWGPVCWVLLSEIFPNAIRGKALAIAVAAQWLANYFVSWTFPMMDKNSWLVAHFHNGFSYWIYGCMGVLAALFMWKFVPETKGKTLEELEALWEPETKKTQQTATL

D27N XylE [4] = target: T2, D27N XylE; assay: SSM-based electrophysiology, transport-deficient mutant D27N XylE (PSS currents, electrogenic binding); assay type: biochemical
Protocol: as §1
(§7) Wt XylE, wt FucP, and the mutant proteins were reconstituted using overnight incubation in 400 mg/ml BioBeads (SM-2 Adsorbent Media, Bio-Rad) at 4 °C. After reconstitution, the samples were diluted to 2.5 mg/ml lipid concentration, frozen in liquid nitrogen, and stored at −80 °C. For wt LacY and mutant proteins, this procedure was not successful. We, therefore, applied the previously established n-octyl-β-D-glucoside dilution method (1:100) ([69]).
as §2, §3, §4, §5, §6

wt XylE [5] = target: T3, wt XylE; assay: biochemical; design: made in house; host or cells: E. coli BL21 DE3
Protocol: as §1, §7, §2, §3, §4, §5, §6

D27N XylE [6] = target: T2, D27N XylE; details: relative to D-xylose in wt XylE (100%); cited from earlier work
XylE [7] = target: XylE; design: method as in PMID 23075985; details: read-out: KD, isothermal titration calorimetry; cited from earlier work
wt XylE [8] = target: T3, wt XylE; details: cited from earlier work

OC1OC[C@@H](O)[C@H](O)[C@H]1O (stereo partly drawn) [D-xylose]
EC50 (Q175I/L297F XylE; EC50 (mM) (KM for transport, slow component), pH 7.6): ~1.5 mM | Imax slow component normalized to D-xylose transport in wt XylE (100%) (Q175I/L297F XylE; pH 7.6): 22% | Imax (nA) slow component (Q175I/L297F XylE; pH 7.6, reconstructed transporter current): 0.4 ± 0.1 nA | IPeak (pA) fast component (Q175I/L297F XylE; pH 7.6, saturating substrate): 520 ± 90 pA | pKa (Q175I/L297F XylE; reconstructed transporter currents, acidic range): 4.8 ± 0.1 | activity in uptake assay (D27N XylE [1]): < 1% | Km (XylE [2]): 100 to 500 µM | Radioactive counterflow activity (wt XylE [3]): 100% ^a | Kd (D27N XylE [4]; KD (mM) mut, pH 7.6, hyperbolic fit of peak currents, in Table 3 headed EC50): 1 ± 0.1 mM | Kd (D27N XylE [4]; KD from fit of concentration-dependent kobs, pH 7.6): 5.5 ± 2.1 mM | Imax (nA) slow component (D27N XylE [4]; pH 7.6): <0.05 nA | Q (pC) Mut, transferred charge (D27N XylE [4]; pH 7.6, 30 mM substrate): 6.8 ± 1.5 (pH 7.6) pC | IPeak (pA) fast component (D27N XylE [4]; pH 7.6, saturating substrate): 500 pA and 500 ± 100 pA | kobs (s^−1) mut (D27N XylE [4]; saturating substrate (30 mM), kobs = 1/τ, monoexponential fit, limited by time resolution): 300 ± 30 s⁻¹ | PSS current higher than that for D-glucose (wt XylE [5]; independent of pH): 165 pA | Q (pC) wt, PSS transferred charge (wt XylE [5]; pH 3.2, 30 mM substrate): 4.0 ± 1.4 (pH 3.2) pC | Imax in percent of Imax of the main substrate (D-xylose) (wt XylE [5]; pH 7.6): 100% | IPeak (pA) fast component (wt XylE [5]; pH 7.6, saturating substrate, transport current given as upper limit): <1800 pA | Radioactive counterflow activity (D27N XylE [6]): 90% | Kd (XylE [7]): 400 µM | Imax (wt XylE [8]; pH 7.6, main substrate): 1.8 ± 0.5 nA | pKa (wt XylE [8]; pH-dependent peak currents, acidic range): 4.6 ± 0.2 | pKb1 (wt XylE [8]; pH-dependent peak currents, alkaline range, double titration): ~7.5 | Km (wt XylE [8]; read-out: KM (mM) Michaelis–Menten equation, pH 7.6, main substrate, in Table 3 headed EC50): ~1.5 mM
